Measured values published in ChEMBL document CHEMBL1150844, “Isolation and structures of hedaols A, B, and C, new bisnorditerpenes from a Japanese brown alga” (J Nat Prod, 2001).
Values after ≈ are worked out from the molar mass of the structure shown.

Tested on: P388
Test: Cytotoxicity against mouse P388 cells after 4 days by MTT method
Type: functional, cell-based
Settings: P388, 96 h

CC(C)=CC(=O)C/C(C)=C/CC/C(C)=C/CC[C@@H](C)O [HEDAOL B]
IC50: 2.2 µg/mL (≈ 7.9 µM)

CC(C)=CC(=O)/C=C(\C)CCC/C(C)=C/CC[C@@H](C)O [HEDAOL C]
IC50: 50 µg/mL (≈ 180 µM)

CC(C)=CC(=O)/C=C(/C)CCC/C(C)=C/CC[C@@H](C)O [HEDAOL A]
IC50: 5.1 µg/mL (≈ 18.3 µM)
